From ChEMBL document CHEMBL1671696, “Deamplification of pfmdr1-containing amplicon on chromosome 5 in Plasmodium falciparum is associated with reduced resistance to artelinic acid in vitro” (Antimicrob Agents Chemother, 2010)
Values after ≈ are worked out from the molar mass of the structure shown.

Legend:
Plasmodium falciparum [1] = assay: Ratio of IC90 for Plasmodium falciparum subclone 3A12 containing 2 copy number of pfmdr1-containing amplicon on chromosome 5 to IC90 for wild type Plasmodium falciparum W2; type: functional
Plasmodium falciparum [2] = assay: Ratio of IC90 for Plasmodium falciparum subclone 3A7 containing 4 copy number of pfmdr1-containing amplicon on chromosome 5 to IC90 for wild type Plasmodium falciparum W2; type: functional
Plasmodium falciparum [3] = assay: Ratio of IC50 for Plasmodium falciparum clone W2AL80 containing 3 copy number of pfmdr1-containing amplicon on chromosome 5 to IC50 for wild type Plasmodium falciparum W2; type: functional
Plasmodium falciparum [4] = assay: Ratio of IC90 for Plasmodium falciparum subclone 3A26 containing 3 copy number of pfmdr1-containing amplicon on chromosome 5 to IC90 for wild type Plasmodium falciparum W2; type: functional
Plasmodium falciparum [5] = assay: Ratio of IC90 for Plasmodium falciparum subclone 3A17 containing 2 copy number of pfmdr1-containing amplicon on chromosome 5 to IC90 for wild type Plasmodium falciparum W2; type: functional
Plasmodium falciparum [6] = assay: Antimicrobial activity against Plasmodium falciparum subclone 3A26 containing 3 copy number of pfmdr1-containing amplicon on chromosome 5 assessed as growth inhibition by [3H]hypoxanthine incorporation assay; type: functional, organism-based
Plasmodium falciparum [7] = assay: Ratio of IC50 for Plasmodium falciparum subclone 3A8 containing 3 copy number of pfmdr1-containing amplicon on chromosome 5 to IC50 for wild type Plasmodium falciparum W2; type: functional
Plasmodium falciparum [8] = assay: Ratio of IC90 for Plasmodium falciparum subclone 3A8 containing 3 copy number of pfmdr1-containing amplicon on chromosome 5 to IC90 for wild type Plasmodium falciparum W2; type: functional
Plasmodium falciparum [9] = assay: Antimicrobial activity against Plasmodium falciparum subclone 3C1 containing 3 copy number of pfmdr1-containing amplicon on chromosome 5 assessed as growth inhibition by [3H]hypoxanthine incorporation assay; type: functional, organism-based
Plasmodium falciparum [10] = assay: Ratio of IC50 for Plasmodium falciparum subclone 3C10 containing 2 copy number of pfmdr1-containing amplicon on chromosome 5 to IC50 for wild type Plasmodium falciparum W2; type: functional
Plasmodium falciparum [11] = assay: Ratio of IC90 for Plasmodium falciparum subclone 3A1 containing 1 copy number of pfmdr1-containing amplicon on chromosome 5 to IC90 for wild type Plasmodium falciparum W2; type: functional
Plasmodium falciparum [12] = assay: Antimicrobial activity against Plasmodium falciparum subclone 3A17 containing 2 copy number of pfmdr1-containing amplicon on chromosome 5 assessed as growth inhibition by [3H]hypoxanthine incorporation assay; type: functional, organism-based
Plasmodium falciparum [13] = assay: Antimicrobial activity against Plasmodium falciparum subclone 3A12 containing 2 copy number of pfmdr1-containing amplicon on chromosome 5 assessed as growth inhibition by [3H]hypoxanthine incorporation assay; type: functional, organism-based
Plasmodium falciparum [14] = assay: Antimicrobial activity against compound-sensitive Plasmodium falciparum clone W2 assessed as growth inhibition by [3H]hypoxanthine incorporation assay; type: functional, organism-based
Plasmodium falciparum [15] = assay: Ratio of IC90 for Plasmodium falciparum subclone 3C10 containing 2 copy number of pfmdr1-containing amplicon on chromosome 5 to IC90 for wild type Plasmodium falciparum W2; type: functional
Plasmodium falciparum [16] = assay: Antimicrobial activity against Plasmodium falciparum subclone 3A3 containing 1 copy number of pfmdr1-containing amplicon on chromosome 5 assessed as growth inhibition by [3H]hypoxanthine incorporation assay; type: functional, organism-based
Plasmodium falciparum [17] = assay: Antimicrobial activity against Plasmodium falciparum subclone 3A1 containing 1 copy number of pfmdr1-containing amplicon on chromosome 5 assessed as growth inhibition by [3H]hypoxanthine incorporation assay; type: functional, organism-based
Plasmodium falciparum [18] = assay: Antimicrobial activity against Plasmodium falciparum subclone 3C10 containing 2 copy number of pfmdr1-containing amplicon on chromosome 5 assessed as growth inhibition by [3H]hypoxanthine incorporation assay; type: functional, organism-based
Plasmodium falciparum [19] = assay: Antimicrobial activity against drug pre-treated Plasmodium falciparum clone W2AL80 containing 3 copy number of pfmdr1-containing amplicon on chromosome 5 assessed as growth inhibition by [3H]hypoxanthine incorporation assay; type: functional, organism-based
Plasmodium falciparum [20] = assay: Antimicrobial activity against Plasmodium falciparum subclone 3C20 containing 2 copy number of pfmdr1-containing amplicon on chromosome 5 assessed as growth inhibition by [3H]hypoxanthine incorporation assay; type: functional, organism-based
Plasmodium falciparum [21] = assay: Ratio of IC50 for Plasmodium falciparum subclone 3A17 containing 2 copy number of pfmdr1-containing amplicon on chromosome 5 to IC50 for wild type Plasmodium falciparum W2; type: functional
Plasmodium falciparum [22] = assay: Ratio of IC50 for Plasmodium falciparum subclone 3C20 containing 2 copy number of pfmdr1-containing amplicon on chromosome 5 to IC50 for wild type Plasmodium falciparum W2; type: functional
Plasmodium falciparum [23] = assay: Ratio of IC50 for Plasmodium falciparum subclone 3A12 containing 2 copy number of pfmdr1-containing amplicon on chromosome 5 to IC50 for wild type Plasmodium falciparum W2; type: functional
Plasmodium falciparum [24] = assay: Ratio of IC50 for Plasmodium falciparum subclone 3C18 containing 3 copy number of pfmdr1-containing amplicon on chromosome 5 to IC50 for wild type Plasmodium falciparum W2; type: functional
Plasmodium falciparum [25] = assay: Ratio of IC90 for Plasmodium falciparum clone W2AL80 containing 3 copy number of pfmdr1-containing amplicon on chromosome 5 to IC90 for wild type Plasmodium falciparum W2; type: functional
Plasmodium falciparum [26] = assay: Ratio of IC90 for Plasmodium falciparum subclone 3C20 containing 2 copy number of pfmdr1-containing amplicon on chromosome 5 to IC90 for wild type Plasmodium falciparum W2; type: functional
Plasmodium falciparum [27] = assay: Ratio of IC50 for Plasmodium falciparum subclone 3A3 containing 1 copy number of pfmdr1-containing amplicon on chromosome 5 to IC50 for wild type Plasmodium falciparum W2; type: functional
Plasmodium falciparum [28] = assay: Antimicrobial activity against Plasmodium falciparum subclone 3C18 containing 3 copy number of pfmdr1-containing amplicon on chromosome 5 assessed as growth inhibition by [3H]hypoxanthine incorporation assay; type: functional, organism-based
Plasmodium falciparum [29] = assay: Antimicrobial activity against Plasmodium falciparum subclone 3A7 containing 4 copy number of pfmdr1-containing amplicon on chromosome 5 assessed as growth inhibition by [3H]hypoxanthine incorporation assay; type: functional, organism-based
Plasmodium falciparum [30] = assay: Ratio of IC90 for Plasmodium falciparum subclone 3C18 containing 3 copy number of pfmdr1-containing amplicon on chromosome 5 to IC90 for wild type Plasmodium falciparum W2; type: functional
Plasmodium falciparum [31] = assay: Ratio of IC50 for Plasmodium falciparum subclone 3A1 containing 1 copy number of pfmdr1-containing amplicon on chromosome 5 to IC50 for wild type Plasmodium falciparum W2; type: functional
Plasmodium falciparum [32] = assay: Ratio of IC90 for Plasmodium falciparum subclone 3A3 containing 1 copy number of pfmdr1-containing amplicon on chromosome 5 to IC90 for wild type Plasmodium falciparum W2; type: functional
Plasmodium falciparum [33] = assay: Ratio of IC50 for Plasmodium falciparum subclone 3A26 containing 3 copy number of pfmdr1-containing amplicon on chromosome 5 to IC50 for wild type Plasmodium falciparum W2; type: functional
Plasmodium falciparum [34] = assay: Ratio of IC50 for Plasmodium falciparum subclone 3A7 containing 4 copy number of pfmdr1-containing amplicon on chromosome 5 to IC50 for wild type Plasmodium falciparum W2; type: functional
Plasmodium falciparum [35] = assay: Ratio of IC90 for Plasmodium falciparum subclone 3C1 containing 3 copy number of pfmdr1-containing amplicon on chromosome 5 to IC90 for wild type Plasmodium falciparum W2; type: functional
Plasmodium falciparum [36] = assay: Ratio of IC50 for Plasmodium falciparum subclone 3C1 containing 3 copy number of pfmdr1-containing amplicon on chromosome 5 to IC50 for wild type Plasmodium falciparum W2; type: functional
Plasmodium falciparum [37] = assay: Antimicrobial activity against Plasmodium falciparum subclone 3A8 containing 3 copy number of pfmdr1-containing amplicon on chromosome 5 assessed as growth inhibition by [3H]hypoxanthine incorporation assay; type: functional, organism-based

Question: `OC(c1cc(C(F)(F)F)nc2c(C(F)(F)F)cccc12)C1CCCCN1` (stereo unspecified) [MEFLOQUINE] was tested. Which Ratio (Plasmodium falciparum [1]) did it give?
Answer: Its Ratio is 3.6.

Question: What about the Ratio (Plasmodium falciparum [2]) of the same compound?
Answer: Its Ratio is 5.4.

Question: And the “Ratio IC50” value (Plasmodium falciparum [3])?
Answer: Its value is 2.3.

Question: And the Ratio (Plasmodium falciparum [4])?
Answer: The Ratio was 5.2.

Question: What about the Ratio (Plasmodium falciparum [5]) of the same compound?
Answer: Its Ratio is 6.6.

Question: What about the IC50 (Plasmodium falciparum [6]) of the same compound?
Answer: Its IC50 is 0.0191 µg/mL (≈ 0.0504 µM).

Question: What about the IC90 (Plasmodium falciparum [6]) of the same compound?
Answer: The IC90 was 0.075 µg/mL (≈ 0.198 µM).

Question: And the “Ratio IC50” value (Plasmodium falciparum [7])?
Answer: Its value is 2.6.

Question: What about the Ratio (Plasmodium falciparum [8]) of the same compound?
Answer: Its Ratio is 5.2.

Question: What about the IC90 (Plasmodium falciparum [9]) of the same compound?
Answer: Its IC90 is 0.0849 µg/mL (≈ 0.224 µM).

Question: What about the “Ratio IC50” value (Plasmodium falciparum [10]) of the same compound?
Answer: Its value is 3.

Question: And the Ratio (Plasmodium falciparum [11])?
Answer: Its Ratio is 1.8.

Question: And the IC50 (Plasmodium falciparum [12])?
Answer: Its IC50 is 0.019 µg/mL (≈ 0.0501 µM).

Question: And the IC90 (Plasmodium falciparum [12])?
Answer: The IC90 was 0.0954 µg/mL (≈ 0.252 µM).

Question: What about the IC90 (Plasmodium falciparum [13]) of the same compound?
Answer: Its IC90 is 0.0519 µg/mL (≈ 0.137 µM).

Question: What about the IC50 (Plasmodium falciparum [14]) of the same compound?
Answer: The IC50 was 7.72 ng/mL (≈ 0.0204 µM).

Question: And the IC90 (Plasmodium falciparum [14])?
Answer: Its IC90 is 0.0145 µg/mL (≈ 0.0383 µM).

Question: And the Ratio (Plasmodium falciparum [15])?
Answer: Its Ratio is 5.9.

Question: And the IC90 (Plasmodium falciparum [16])?
Answer: Its IC90 is 0.0406 µg/mL (≈ 0.107 µM).

Question: And the IC50 (Plasmodium falciparum [17])?
Answer: Its IC50 is 7.38 ng/mL (≈ 0.0195 µM).

Question: And the IC90 (Plasmodium falciparum [17])?
Answer: The IC90 was 0.0261 µg/mL (≈ 0.069 µM).

Question: And the IC90 (Plasmodium falciparum [18])?
Answer: The IC90 was 0.0821 µg/mL (≈ 0.217 µM).

Question: What about the IC90 (Plasmodium falciparum [19]) of the same compound?
Answer: The IC90 was 0.104 µg/mL (≈ 0.274 µM).

Question: And the IC90 (Plasmodium falciparum [20])?
Answer: Its IC90 is 0.0833 µg/mL (≈ 0.22 µM).

Question: And the “Ratio IC50” value (Plasmodium falciparum [21])?
Answer: The value was 2.6.

Question: What about the “Ratio IC50” value (Plasmodium falciparum [22]) of the same compound?
Answer: The value was 2.2.

Question: And the “Ratio IC50” value (Plasmodium falciparum [23])?
Answer: Its value is 1.7.

Question: What about the “Ratio IC50” value (Plasmodium falciparum [24]) of the same compound?
Answer: Its value is 2.9.

Question: And the Ratio (Plasmodium falciparum [25])?
Answer: The Ratio was 7.2.

Question: What about the Ratio (Plasmodium falciparum [26]) of the same compound?
Answer: Its Ratio is 5.7.

Question: What about the “Ratio IC50” value (Plasmodium falciparum [27]) of the same compound?
Answer: Its value is 1.7.

Question: And the IC90 (Plasmodium falciparum [28])?
Answer: The IC90 was 0.102 µg/mL (≈ 0.269 µM).

Question: What about the IC90 (Plasmodium falciparum [29]) of the same compound?
Answer: Its IC90 is 0.0778 µg/mL (≈ 0.206 µM).

Question: What about the Ratio (Plasmodium falciparum [30]) of the same compound?
Answer: Its Ratio is 7.

Question: What about the “Ratio IC50” value (Plasmodium falciparum [31]) of the same compound?
Answer: Its value is 1.

Question: And the Ratio (Plasmodium falciparum [32])?
Answer: Its Ratio is 2.8.

Question: And the “Ratio IC50” value (Plasmodium falciparum [33])?
Answer: Its value is 2.5.

Question: What about the “Ratio IC50” value (Plasmodium falciparum [34]) of the same compound?
Answer: The value was 3.8.

Question: And the Ratio (Plasmodium falciparum [35])?
Answer: Its Ratio is 5.9.

Question: What about the “Ratio IC50” value (Plasmodium falciparum [36]) of the same compound?
Answer: Its value is 3.1.

Question: And the IC90 (Plasmodium falciparum [37])?
Answer: Its IC90 is 0.0756 µg/mL (≈ 0.2 µM).
